This note sets out measurements from the supplement of paper PMC3974653.

“And” between values parts separate entries of the source, which are not always exact repeats. Equal values may be shown once. Where a name gives a salt, the structure may show the parent alone.

Experiment [1] relates to MTT (mouse pheochromocytoma). As to the kind of experiment: IC50 of cell viability (ATP content); AC50 where efficacy is positive. Conditions: (24 or 48 h).
Experiment [2] deals with MTT (mouse pheochromocytoma). As to the kind of experiment: efficacy (maximal response) relative to doxorubicin = -100% and DMSO = 0%; higher = less inhibition of viability. Conditions: (24 or 48 h).

As for `Oc1cc[c]([Hg][Cl])cc1` [PARA-CHLOROMERCURIPHENOL], in experiment [1], the “IC50 of cell viability” value amounted to 2.37 µM. Moreover, the efficacy in experiment [2] is -97.8%.

Regarding `CCN1/C(=C/C=C/C=C/c2sc3ccccc3[n+]2CC)Sc2ccccc21` [DITHIAZANINE IODIDE], in experiment [1], the “IC50 of cell viability” value was found to be 18.8 µM. Moreover, the efficacy in experiment [2] is -109%.

Consider `CN(C)C1=CC=C(C=C1)C(C2=CC=C(C=C2)N(C)C)=C/3\C=C/C(/C=C3)=[N+](C)C` [Chlorure de methylrosanilinum], for which the “IC50 of cell viability” value in experiment [1] is 23.7 µM. For the same molecule, the efficacy in experiment [2] was -111%.

On to `Cl.CC[C@@]1(O)C(=O)OCC/2=C1/C=C/3N(CC4=C3N=C5C=CC(=C(CN(C)C)C5=C4)O)C2=O` [TOPOTECAN HYDROCHLORIDE], for which, in experiment [1], the “IC50 of cell viability” value is 4.73 µM. In experiment [2], the efficacy is -89.7%.

With `CN1CC[C@@H]([C@@H](O)C1)C2=C(O)C=C(O)C3=C2O\C(=C/C3=O)C4=C(Cl)C=CC=C4` [Flavopiridol hydrochloride hydrate], the “IC50 of cell viability” value in experiment [1] stood at 1.88 µM. Further, the efficacy in experiment [2] is -71.3%.

`NC/1=N/C(=O)N(/C=N1)[C@@H]2O[C@H](CO)[C@@H](O)[C@H]2O` [Azacitidine]: the “IC50 of cell viability” value in experiment [1] is 1.33 µM. The efficacy in experiment [2] is -71.2%.

Take `O=C(CCl)c1ccc(Cl)cc1Cl` [2,2',4'-Trichloroacetophenone]: the “IC50 of cell viability” value in experiment [1] is 8.63 µM and 3.76 µM. The efficacy in experiment [2] was -84.4% and -71.5%.

In the case of `Cc1cc(-c2ccc(/N=N/c3c(S(=O)(=O)[O-])cc4cc(S(=O)(=O)[O-])cc(N)c4c3O)c(C)c2)ccc1/N=N/c1c(S(=O)(=O)[O-])cc2cc(S(=O)(=O)[O-])cc(N)c2c1O` [TRYPAN BLUE], in experiment [1], the “IC50 of cell viability” value was found to be 2.37 µM. Moreover, the efficacy in experiment [2] was -37.4%.

For the molecule `C[C@]12O[C@H](C[C@]1(O)CO)n1c3ccccc3c3c4c(c5c6ccccc6n2c5c31)CNC4=O` [LESTAURTINIB], the “IC50 of cell viability” value in experiment [1] was 2.66 µM. Further, in experiment [2], the efficacy was -83.2%.

Consider `CCCCCCCC[N+](C)(C)CCCCCCCC` [Dioctyl Dimethyl Ammonium Chloride], for which, in experiment [1], the “IC50 of cell viability” value was 0.119 µM. Moreover, the efficacy in experiment [2] was -39.1%.

For the molecule `O=c1n(CC2CO2)c(=O)n(CC2CO2)c(=O)n1CC1CO1` (stereo not given) [TEROXIRONUM], the “IC50 of cell viability” value in experiment [1] was determined as 4.22 µM. For the same molecule, the efficacy in experiment [2] is -43.7%.

Consider `O=C(Nc1cccc(C(F)(F)F)c1)c1cc(Br)cc(Br)c1O` [FLUOROSALAN], for which, in experiment [1], the “IC50 of cell viability” value worked out at 2.66 µM. Besides, in experiment [2], the efficacy was -35.6%.

`c1ccc2[nH]c(-c3cscn3)nc2c1` [Thiabendazole]: the “IC50 of cell viability” value in experiment [1] stood at 9.44 µM. Besides, the efficacy in experiment [2] is -40%.

Consider `CC(=O)C1(O)Cc2c(O)c3c(c(O)c2C(OC2CC(N)C(O)C(C)O2)C1)C(=O)c1c(O)cccc1C3=O` (stereo not given) [Carminomycin], for which the “IC50 of cell viability” value in experiment [1] turned out to be 2.66 µM. Besides, the efficacy in experiment [2] was -48.5%.

With `C=CCNC1=C2C[C@@H](C)C[C@H](OC)[C@H](O)[C@@H](C)/C=C(\C)[C@H](OC(N)=O)[C@@H](OC)C=C/C=C(\C)C(=O)NC(=CC1=O)C2=O` [17-Allylamino-geldanamycin], in experiment [1], the “IC50 of cell viability” value worked out at 4.22 µM. The efficacy in experiment [2] is -80.6%.

On to `CC[NH+](CC)CCCN(c1ccccc1)C1Cc2ccccc2C1` [APRINDINE HYDROCHLORIDE], for which the “IC50 of cell viability” value in experiment [1] amounted to 26.6 µM. The efficacy in experiment [2] is -107%.

Take `[O-][n+]1ccccc1SSc1cccc[n+]1[O-]` [Dipyrithione]: the “IC50 of cell viability” value in experiment [1] turned out to be 1.5 µM. Moreover, the efficacy in experiment [2] was -81%.

Consider `Cc1ccc2c(c1)c1c3n2CCNC3CCC1` (stereo not given) [Pirlindole mesylate], for which the “IC50 of cell viability” value in experiment [1] came to 21.1 µM. Moreover, the efficacy in experiment [2] is -45.7%.

For `[H]/N=C(/c1ccc(OCCCCCC)c2ccccc12)N(CCCC)CCCC` [BUNAMIDINE HYDROCHLORIDE], the “IC50 of cell viability” value in experiment [1] was determined as 18.8 µM. The efficacy in experiment [2] was -96.3%.

For the molecule `C[CH2][Hg][S]c1ccccc1C(=O)[O-].[Na+]` [THIMEROSAL], the “IC50 of cell viability” value in experiment [1] turned out to be 2.99 µM. The efficacy in experiment [2] was -86.9%.

With `C=C(C)[C@H]1Cc2c(ccc3c2O[C@@H]2COc4cc(OC)c(OC)cc4[C@@H]2C3=O)O1` [Rotenone], in experiment [1], the “IC50 of cell viability” value was 2.66 µM. The efficacy in experiment [2] is -124%.

With `C[n+]1c2cc(N)ccc2cc2ccc(N)cc21.[Cl-]` [ACRIFLAVINIUM HYDROCHLORIDE], in experiment [1], the “IC50 of cell viability” value came out at 10.6 µM. Also, the efficacy in experiment [2] was -50.3%.

As to `CCCCCCCCCCCCCCCC[n+]1ccccc1` [Cetylpyridinium bromide], the “IC50 of cell viability” value in experiment [1] turned out to be 10.6 µM. Moreover, the efficacy in experiment [2] was -96.5%.

For the molecule `Nc1ncn(C2C[C@H](O)[C@@H](CO)O2)c(=O)n1` (stereo not given in full), in experiment [1], the “IC50 of cell viability” value worked out at 0.0668 µM. In addition, in experiment [2], the efficacy is -51.6%.

As to `Cl.CC(C)(C)[C@]1(O)CC[N@@]2C[C@H]3C4=C(CCC5=CC=CC(=C35)[C@@H]2C1)C=CC=C4` [(?)-Butaclamol hydrochloride], the “IC50 of cell viability” value in experiment [1] was 21.1 µM. Moreover, the efficacy in experiment [2] is -70.8%.

As to `CCN(CC)C1=CC=C(C=C1)C(\C2=CC=CC=C2)=C3\C=C/C(/C=C3)=[N+](\CC)CC` [Brilliant Green], the “IC50 of cell viability” value in experiment [1] is 1.68 µM. The efficacy in experiment [2] is -108%.

Take `CCCCCCCCCCCCCCCCOCCOCCOCCOCCOCCOCCOCCOCCOCCOCCOCCOCCOCCOCCOCCOCCOCCOCCOCCOCCO` [CETOMACROGOL EMULSIFYING WAX]: in experiment [1], the “IC50 of cell viability” value was determined as 16.8 µM. The efficacy in experiment [2] is -80.5%.

Take `COCC(=O)NC1=CC(SC2=CC=CC=C2)=CC=C1\N=C(/NC(=O)OC)NC(=O)OC` [FEBANTEL]: the “IC50 of cell viability” value in experiment [1] amounted to 18.8 µM. Further, the efficacy in experiment [2] was -48%.

For `CCC(C(=O)C(C)C(O)C(C)CCc1ccc(C)c(O)c1C(=O)[O-])C1OC(CC)(C2CC[C@@](O)(CC)C(C)O2)CC1C.[Na+]` (stereo not given in full) [LASALOCID SODIUM], the “IC50 of cell viability” value in experiment [1] was 4.22 µM. Besides, in experiment [2], the efficacy is -40.1%.

On to `C[C@@]12C(=O)OC(=O)[C@@]1(C)[C@H]1CC[C@H]2O1` [Cantharidin], for which the “IC50 of cell viability” value in experiment [1] was 1.28 µM. Besides, in experiment [2], the efficacy is -39%.

Regarding `CCCCCCCCCCCC[n+]1ccc2ccccc2c1` [LAURYL ISOQUINOLINIUM BROMIDE], the “IC50 of cell viability” value in experiment [1] is 0.376 µM. Further, the efficacy in experiment [2] was -31.3%.

In the case of `O=C(Nc1ccc(Cl)cc1)Nc1ccc(Cl)c(Cl)c1` [Triclocarban], in experiment [1], the “IC50 of cell viability” value came out at 26.6 µM. Further, in experiment [2], the efficacy was -121%.

In the case of `C[n+]1cc2c3c(ccc2c2ccc4cc5c(cc4c21)OCO5)OCO3` [Sanguinarine], in experiment [1], the “IC50 of cell viability” value was 8.41 µM. Further, the efficacy in experiment [2] is -87.7%.

As for `Cc1cc(CC(C)CC(C)(C)C)n(O)c(=O)c1` (stereo not given) [PIROCTONE OLAMINE], the “IC50 of cell viability” value in experiment [1] came to 15 µM. In addition, the efficacy in experiment [2] was -49%.

For the molecule `CO[C@@]12[C@H](COC(N)=O)C\3=C(/N1C[C@H]4N[C@@H]24)C(=O)\C(=C(N)/C3=O)C` [MITOMYCIN C], in experiment [1], the “IC50 of cell viability” value was 1.5 µM. Further, the efficacy in experiment [2] is -34.6%.

In the case of `CC(=O)O[C@H]1C(=O)[C@@]2(C)[C@H]([C@H](OC(=O)c3ccccc3)[C@]3(O)CC(OC(=O)C(O)C(NC(=O)c4ccccc4)c4ccccc4)C(C)=C1C3(C)C)[C@]1(OC(C)=O)CO[C@@H]1C[C@@H]2O` (stereo not given in full) [Paclitaxel], in experiment [1], the “IC50 of cell viability” value stood at 0.0376 µM. The efficacy in experiment [2] was -50.9%.

Consider `Cc1c(C(=O)O)c(O)cc2c1C(=O)c1c(O)c([C@H]3O[C@H](CO)[C@@H](O)[C@H](O)[C@H]3O)c(O)c(O)c1C2=O` [COCHINEAL], for which the “IC50 of cell viability” value in experiment [1] is 16.8 µM. Besides, the efficacy in experiment [2] was -45.4%.

For `O=[N+]([O-])c1ccc(O)c2ncccc12` [Nitroxoline], the “IC50 of cell viability” value in experiment [1] was determined as 21.1 µM. In addition, in experiment [2], the efficacy is -85.8%.

For `CCN1/C(=C/C=C/c2ccc3ccccc3[n+]2CC)C=Cc2ccccc21` [Quinaldine blue], in experiment [1], the “IC50 of cell viability” value turned out to be 0.299 µM. In addition, the efficacy in experiment [2] is -34.9%.

As for `COc1cc2c(Nc3ccc(Br)cc3F)ncnc2cc1OCC1CCN(C)CC1` [VANDETANIB], in experiment [1], the “IC50 of cell viability” value was 26.6 µM. The efficacy in experiment [2] was -102%.

Turning to `CCCCc1ccc2[nH]c(NC(=O)OC)nc2c1` [Parbendazole], in experiment [1], the “IC50 of cell viability” value was 0.453 µM. Besides, the efficacy in experiment [2] is -45.1%.

For the molecule `CC(C)NC(=N)NC(=N)Nc1ccc(Cl)cc1` [Proguanil hydrochloride], in experiment [1], the “IC50 of cell viability” value stood at 4.53 µM. For the same molecule, the efficacy in experiment [2] is -59%.

Consider `C[S+](CC[C@H](N)C(=O)O)C[C@H]1O[C@@H](n2cnc3c(N)ncnc32)[C@H](O)[C@@H]1O` (stereo not given in full) [ADEMETIONINE], for which the “IC50 of cell viability” value in experiment [1] was 21.1 µM. Besides, the efficacy in experiment [2] was -49.1%.

Regarding `COCC(=O)O[C@]1(CCN(C)CCCc2nc3ccccc3[nH]2)CCc2cc(F)ccc2[C@@H]1C(C)C.Cl.Cl` [Mibefradil dihydrochloride], the “IC50 of cell viability” value in experiment [1] came to 11.9 µM. Also, in experiment [2], the efficacy was -97.9%.

As to `CC[P](CC)(CC)=[Au][S][C@@H]1OC(COC(C)=O)[C@@H](OC(C)=O)[C@H](OC(C)=O)C1OC(C)=O` (stereo not given in full) [Auranofin], the “IC50 of cell viability” value in experiment [1] came out at 2.66 µM. For the same molecule, the efficacy in experiment [2] is -86.7%.
